Experimental data as given in US9120812B2, “Pyrimidooxazocine derivatives as mTOR-inhibitors” (SANOFI, priority 2012, dated 2015).

Experiments:
[1] = molecular target: mTOR (human recombinant aa mTOR 1360-2549) (Homo sapiens (Human), UniProt P42345); experiment: mTOR enzymatic test by TR-FRET (phosphorylation of GFP-4EBP1); format: biochemical
In short: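 TR-FRET detection of GFP-4EBP1 phosphorylation by a terbium-labelled anti-phospho-Thr46 antibody. Kinase reaction ran 30 min at room temperature, was quenched with EDTA (10 mM final) plus Tb-antibody (2 nM final) and left 60 min. Emission at 520 and 490 nm after 340 nm excitation, reported as the 520/490 ratio.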

PI3Kα (p110α/p85α) = PI3Kα (p110α/p85α) (Homo sapiens (Human), UniProt P42336); experiment: PI3Kα enzymatic test by measuring the consumption of ATP; format: biochemical
In short: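 p110α/p85α (1.7 μg/ml) with 50 μM PIP2 and 2 μM ATP in pH 7.5 Tris buffer with EGTA, MgCl2, Chaps, DTT; reaction 90 min. Remaining ATP measured by luciferin/luciferase luminescence; IC50 from threefold serial dilutions spanning at least 10 000-fold.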

U87MG tumour cells = experiment: Test of in vitro proliferation of U87MG tumour cells; format: cell-based; conditions: Homo sapiens, U-87 MG, 72 h, U87MG cells, 72 hours; read-out: U87 Cell Proliferation IC50
Experimental: Model 4: Test of in vitro Proliferation of U87MG Tumour Cells.
The cell growth is determined with the reagent CellTiter 96 AQueous One Solution Cell Proliferation Assay from Promega (Cat. No. G3581).

Akt-pS473 in U87MG cells = conditions: Homo sapiens, U-87 MG; for IC50: read-out: U87 Akt-pS473 % Inhibition or IC50, nM (IC50), U87MG cells

Sequence of PI3Kα (p110α/p85α) (P42336 whole entry): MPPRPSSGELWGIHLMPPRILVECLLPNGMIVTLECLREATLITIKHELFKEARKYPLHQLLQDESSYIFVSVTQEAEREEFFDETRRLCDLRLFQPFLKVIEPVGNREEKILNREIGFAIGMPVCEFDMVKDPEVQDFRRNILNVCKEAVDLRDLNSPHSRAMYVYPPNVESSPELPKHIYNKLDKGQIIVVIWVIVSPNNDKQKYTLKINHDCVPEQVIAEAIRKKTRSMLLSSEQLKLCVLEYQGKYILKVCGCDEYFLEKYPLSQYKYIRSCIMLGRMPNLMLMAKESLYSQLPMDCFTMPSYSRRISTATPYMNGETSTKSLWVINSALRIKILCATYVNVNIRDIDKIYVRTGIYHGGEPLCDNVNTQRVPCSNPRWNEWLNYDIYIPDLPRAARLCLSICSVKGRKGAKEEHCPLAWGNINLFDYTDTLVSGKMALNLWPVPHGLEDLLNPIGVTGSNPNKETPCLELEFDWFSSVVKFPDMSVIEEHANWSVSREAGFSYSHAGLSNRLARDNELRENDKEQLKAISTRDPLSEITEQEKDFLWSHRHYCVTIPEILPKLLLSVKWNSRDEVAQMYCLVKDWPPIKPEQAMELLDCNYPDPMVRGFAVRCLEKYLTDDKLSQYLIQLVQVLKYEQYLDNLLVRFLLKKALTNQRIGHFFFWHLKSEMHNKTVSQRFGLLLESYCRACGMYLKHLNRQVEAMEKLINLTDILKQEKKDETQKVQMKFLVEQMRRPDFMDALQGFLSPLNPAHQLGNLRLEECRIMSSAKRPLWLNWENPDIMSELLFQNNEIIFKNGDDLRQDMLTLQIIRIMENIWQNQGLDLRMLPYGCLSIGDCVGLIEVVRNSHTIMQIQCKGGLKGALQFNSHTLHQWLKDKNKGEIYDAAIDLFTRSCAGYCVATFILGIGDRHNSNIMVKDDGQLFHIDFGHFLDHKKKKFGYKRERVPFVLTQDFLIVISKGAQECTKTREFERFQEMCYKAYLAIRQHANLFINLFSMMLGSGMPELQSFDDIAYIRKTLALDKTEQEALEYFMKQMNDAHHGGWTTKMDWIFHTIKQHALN
Sequence of PI3Kα (p110α/p85α) (P27986 whole entry partner): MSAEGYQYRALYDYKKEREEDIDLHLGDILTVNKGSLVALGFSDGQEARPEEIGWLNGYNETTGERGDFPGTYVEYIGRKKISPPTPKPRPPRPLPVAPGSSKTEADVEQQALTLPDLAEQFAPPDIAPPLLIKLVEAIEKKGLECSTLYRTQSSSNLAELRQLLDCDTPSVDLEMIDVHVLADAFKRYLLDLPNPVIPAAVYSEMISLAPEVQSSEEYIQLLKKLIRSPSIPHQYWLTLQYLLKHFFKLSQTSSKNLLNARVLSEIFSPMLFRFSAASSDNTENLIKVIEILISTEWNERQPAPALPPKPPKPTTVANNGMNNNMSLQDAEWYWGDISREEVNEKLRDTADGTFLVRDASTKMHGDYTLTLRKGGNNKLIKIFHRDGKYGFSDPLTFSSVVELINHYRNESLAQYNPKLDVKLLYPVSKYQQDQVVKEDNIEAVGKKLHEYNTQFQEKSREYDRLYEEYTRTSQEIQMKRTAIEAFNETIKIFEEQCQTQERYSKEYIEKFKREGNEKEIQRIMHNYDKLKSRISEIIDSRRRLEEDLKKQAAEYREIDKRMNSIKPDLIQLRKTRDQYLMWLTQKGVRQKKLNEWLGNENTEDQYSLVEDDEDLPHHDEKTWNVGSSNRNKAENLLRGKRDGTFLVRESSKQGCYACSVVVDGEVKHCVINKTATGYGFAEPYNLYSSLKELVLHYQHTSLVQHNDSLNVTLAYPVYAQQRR
Sequence of mTOR (human recombinant aa mTOR 1360-2549) (P42345 1360-2549): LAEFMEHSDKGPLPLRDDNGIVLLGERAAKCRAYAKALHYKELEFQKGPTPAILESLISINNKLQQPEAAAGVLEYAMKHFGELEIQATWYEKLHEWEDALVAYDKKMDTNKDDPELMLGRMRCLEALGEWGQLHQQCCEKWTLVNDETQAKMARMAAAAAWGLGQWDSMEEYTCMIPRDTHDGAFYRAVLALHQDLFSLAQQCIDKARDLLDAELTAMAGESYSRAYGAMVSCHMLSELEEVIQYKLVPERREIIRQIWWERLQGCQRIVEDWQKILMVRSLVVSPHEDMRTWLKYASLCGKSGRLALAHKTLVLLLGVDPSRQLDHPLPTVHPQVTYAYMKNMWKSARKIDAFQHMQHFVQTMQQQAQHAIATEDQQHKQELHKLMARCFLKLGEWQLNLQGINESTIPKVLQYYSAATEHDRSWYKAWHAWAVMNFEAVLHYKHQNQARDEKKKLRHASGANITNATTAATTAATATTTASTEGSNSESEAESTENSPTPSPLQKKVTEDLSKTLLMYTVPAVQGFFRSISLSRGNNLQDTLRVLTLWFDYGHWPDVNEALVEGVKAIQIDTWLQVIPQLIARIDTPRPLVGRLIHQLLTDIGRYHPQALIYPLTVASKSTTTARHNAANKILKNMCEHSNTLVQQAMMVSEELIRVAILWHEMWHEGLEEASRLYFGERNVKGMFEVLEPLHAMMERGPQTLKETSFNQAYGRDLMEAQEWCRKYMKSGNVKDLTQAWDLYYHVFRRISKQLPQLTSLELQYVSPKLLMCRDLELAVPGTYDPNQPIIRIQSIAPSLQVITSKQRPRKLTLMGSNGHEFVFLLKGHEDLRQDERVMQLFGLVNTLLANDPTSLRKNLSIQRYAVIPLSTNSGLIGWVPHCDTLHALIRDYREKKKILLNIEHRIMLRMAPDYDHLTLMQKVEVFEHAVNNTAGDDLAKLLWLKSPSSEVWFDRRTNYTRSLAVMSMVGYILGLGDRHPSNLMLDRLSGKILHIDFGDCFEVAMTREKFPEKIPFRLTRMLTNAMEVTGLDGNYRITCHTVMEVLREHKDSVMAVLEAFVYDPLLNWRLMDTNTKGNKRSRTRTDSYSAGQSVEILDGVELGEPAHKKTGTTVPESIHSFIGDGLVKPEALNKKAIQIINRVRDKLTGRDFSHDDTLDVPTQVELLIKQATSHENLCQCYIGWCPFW

CNC(=O)Nc1ccc(-c2nc(N3CC4CCC(C3)O4)nc3c2C(=O)N(CCOC)CC(C)(C)O3)cc1F [Example 210, 1-{2-Fluoro-4-[6-(2-methoxyethyl)-8,8-dimethyl-2-(8-oxa-3-azabicyclo[3.2.1]oct-3-yl)-5-oxo-5,6,7,8-tetrahydro-9-oxa-1,3,6-triazabenzocyclohepten-4-yl]phenyl}-3-methylurea]
IC50 [1]: 41 nM
PI3Ka IC50 (PI3Kα (p110α/p85α)): >10000 nM
IC50 (U87MG tumour cells): 625 nM
IC50 (Akt-pS473 in U87MG cells): 174 nM

CCN1CC(C)(C)Oc2nc(N3CC4CCC(C3)O4)nc(-c3ccc(NC(=O)Nc4ccnc(N(C)C)c4)c(F)c3)c2C1=O [Example 78, 1-(2-Dimethylaminopyridin-4-yl)-3-{4-[6-ethyl-8,8-dimethyl-2-(8-oxa-3-azabicyclo[3.2.1]oct-3-yl)-5-oxo-5,6,7,8-tetrahydro-9-oxa-1,3,6-triazabenzocyclohepten-4-yl]-2-fluorophenyl}urea]
IC50 [1]: 90 nM
PI3Ka IC50 (PI3Kα (p110α/p85α)): 6260 nM
IC50 (U87MG tumour cells): 83 nM
IC50 (Akt-pS473 in U87MG cells): 28 nM

CCN1CC(C)(C)Oc2nc(N3CC4CCC(C3)O4)nc(-c3ccc(NC(=O)Nc4cccc(OC(F)F)c4)cc3)c2C1=O [Example 18, 1-(3-difluoromethoxyphenyl)-3-{4-[6-ethyl-8,8-dimethyl-2-(8-oxa-3-azabicyclo[3.2.1]oct-3-yl)-5-oxo-5,6,7,8-tetrahydro-9-oxa-1,3,6-triazabenzocyclohepten-4-yl]phenyl}urea]
IC50 [1]: 25 nM
PI3Ka IC50 (PI3Kα (p110α/p85α)): 7570 nM
IC50 (U87MG tumour cells): 63 nM
IC50 (Akt-pS473 in U87MG cells): 29 nM

CN1CC(C)(C)Oc2nc(N3CC4CCC(C3)O4)nc(-c3ccc(NC(=O)Nc4ccncc4F)cc3)c2C1=O [Example 85, 1-(3-Fluoropyridin-4-yl)-3-{4-[6,8,8-trimethyl-2-(8-oxa-3-azabicyclo[3.2.1]oct-3-yl)-5-oxo-5,6,7,8-tetrahydro-9-oxa-1,3,6-triazabenzocyclohepten-4-yl]phenyl}urea]
IC50 [1]: 24 nM
PI3Ka IC50 (PI3Kα (p110α/p85α)): 1950 nM
IC50 (U87MG tumour cells): 77 nM
IC50 (Akt-pS473 in U87MG cells): 28 nM

CCN1CC(C)(C)Oc2nc(N3CC4CCC(C3)O4)nc(-c3ccc(Nc4nnc(-c5ccc(OC)nc5)[nH]4)c(F)c3)c2C1=O [Example 183, 6-Ethyl-4-{3-fluoro-4-[5-(6-methoxypyridin-3-yl)-4H-[1,2,4]triazol-3-ylamino]phenyl}-8,8-dimethyl-2-(8-oxa-3-azabicyclo[3.2.1]oct-3-yl)-7,8-dihydro-6H-9-oxa-1,3,6-triazabenzocyclohepten-5-one]
IC50 [1]: 128 nM
PI3Ka IC50 (PI3Kα (p110α/p85α)): >10000 nM
IC50 (U87MG tumour cells): 752 nM
IC50 (Akt-pS473 in U87MG cells): 165 nM

CCN1CC(C)(C)Oc2nc(N3CC4CCC(C3)O4)nc(-c3ccc(NC(=O)NC)c(F)c3)c2C1=O [Example 1, 1-{4-[6-Ethyl-8,8-dimethyl-2-(8-oxa-3-azabicyclo[3.2.1]oct-3-yl)-5-oxo-5,6,7,8-tetrahydro-9-oxa-1,3,6-triazabenzocyclohepten-4-yl]-2-fluorophenyl}-3-methylurea]
IC50 [1]: 23 nM
PI3Ka IC50 (PI3Kα (p110α/p85α)): 8841 nM
IC50 (U87MG tumour cells): 197 nM
IC50 (Akt-pS473 in U87MG cells): 55 nM

C[C@H]1COCCN1c1ccc(NC(=O)Nc2ccc(-c3nc(N4CC5CCC(C4)O5)nc4c3C(=O)N(C)CC(C)(C)O4)cc2F)cn1 [Example 73, 1-{2-Fluoro-4-[6,8,8-trimethyl-2-(8-oxa-3-azabicyclo[3.2.1]oct-3-yl)-5-oxo-5,6,7,8-tetrahydro-9-oxa-1,3,6-triazabenzocyclohepten-4-yl]phenyl}-3-[6-((S)-3-methylmorpholin-4-yl)pyridin-3-yl]urea]
IC50 [1]: 71 nM
PI3Ka IC50 (PI3Kα (p110α/p85α)): 5910 nM
IC50 (U87MG tumour cells): 119 nM
IC50 (Akt-pS473 in U87MG cells): 48 nM

CCN1CC(C)(C)Oc2nc(N3C[C@@H]4C[C@H]3CO4)nc(-c3ccc(NC(=O)NC)c(F)c3)c2C1=O [Example 206, 1-[4-((1S,4S)-6-Ethyl-8,8-dimethyl-2-2-oxa-5-azabicyclo[2.2.1]hept-5-yl-5-oxo-5,6,7,8-tetrahydro-9-oxa-1,3,6-triazabenzocyclohepten-4-yl)-2-fluorophenyl]-3-methylurea]
IC50 [1]: 145 nM
PI3Ka IC50 (PI3Kα (p110α/p85α)): >10000 nM
IC50 (U87MG tumour cells): 1340 nM
inhibition at 1 µM (Akt-pS473 in U87MG cells; read-out: U87 Akt-pS473 % Inhibition): 87%

CCN1CC(C)(C)Oc2nc(N3CCOC[C@@H]3C)nc(-c3ccc(NC(=O)Nc4ccc(C(=O)N5CCC(N(C)C)CC5)cc4)cc3)c2C1=O [Example 23, 1-[4-(4-dimethylaminopiperidine-1-carbonyl)phenyl]-3-{4-[6-ethyl-8,8-dimethyl-2-((S)-3-methylmorpholin-4-yl)-5-oxo-5,6,7,8-tetrahydro-9-oxa-1,3,6-triazabenzocyclohepten-4-yl]phenyl}urea]
IC50 [1]: 51 nM
PI3Ka IC50 (PI3Kα (p110α/p85α)): 79 nM
IC50 (U87MG tumour cells): 30 nM
IC50 (Akt-pS473 in U87MG cells): 62 nM

CCN1CC(C)(C)Oc2nc(N3CC4CCC(C3)O4)nc(-c3ccc(NC(=O)Nc4cnc(N(C)C)cn4)c(F)c3)c2C1=O [Example 234, 1-(5-Dimethylaminopyrazin-2-yl)-3-{4-[6-ethyl-8,8-dimethyl-2-(8-oxa-3-azabicyclo[3.2.1]oct-3-yl)-5-oxo-5,6,7,8-tetrahydro-9-oxa-1,3,6-triazabenzocyclohepten-4-yl]-2-fluorophenyl}urea]
IC50 [1]: 67 nM
PI3Ka IC50 (PI3Kα (p110α/p85α)): >10000 nM
IC50 (U87MG tumour cells): 2290 nM
IC50 (Akt-pS473 in U87MG cells): 118 nM

CCN1CC(C)(C)Oc2nc(N3C4CCC3COC4)nc(-c3ccc(NC(=O)Nc4cc(C)nc(C)c4)c(F)c3)c2C1=O [Example 241, 1-(2,6-Dimethylpyridin-4-yl)-3-{4-[6-ethyl-8,8-dimethyl-2-(3-oxa-8-azabicyclo[3.2.1]oct-8-yl)-5-oxo-5,6,7,8-tetrahydro-9-oxa-1,3,6-triazabenzocyclohepten-4-yl]-2-fluorophenyl}urea]
IC50 [1]: 165 nM
PI3Ka IC50 (PI3Kα (p110α/p85α)): >10000 nM
IC50 (U87MG tumour cells): 59 nM
IC50 (Akt-pS473 in U87MG cells): 43 nM

CCN1CC(C)(C)Oc2nc(N3CC4CCC(C3)O4)nc(-c3ccc(NC(=O)Nc4ccc(N5CCN(C)CC5)cc4)c(F)c3)c2C1=O [Example 13, 1-{4-[6-ethyl-8,8-dimethyl-2-(8-oxa-3-azabicyclo[3.2.1]oct-3-yl)-5-oxo-5,6,7,8-tetrahydro-9-oxa-1,3,6-triazabenzocyclohepten-4-yl]-2-fluorophenyl}-3-[4-(4-methylpiperazin-1-yl)phenyl]urea]
IC50 [1]: 132 nM
PI3Ka IC50 (PI3Kα (p110α/p85α)): 6470 nM
IC50 (U87MG tumour cells): 32 nM
IC50 (Akt-pS473 in U87MG cells): 13 nM

CCN1CC(C)(C)Oc2nc(N3CCOC[C@@H]3C)nc(-c3ccc(NC(=O)Nc4cc(OC)ccc4F)cc3)c2C1=O [Example 213, 1-{4-[6-Ethyl-8,8-dimethyl-2-((S)-3-methylmorpholin-4-yl)-5-oxo-5,6,7,8-tetrahydro-9-oxa-1,3,6-triazabenzocyclohepten-4-yl]phenyl}-3-(2-fluoro-5-methoxyphenyl)urea]
IC50 [1]: 48 nM
PI3Ka IC50 (PI3Kα (p110α/p85α)): 991 nM
IC50 (U87MG tumour cells): 103 nM
IC50 (Akt-pS473 in U87MG cells): 20 nM

CCN1CC(C)(C)Oc2nc(N3CCOC[C@@H]3C)nc(-c3ccc(NC(=O)Nc4ccccn4)cc3)c2C1=O [Example 221, 1-{4-[6-Ethyl-8,8-dimethyl-2-((S)-3-methylmorpholin-4-yl)-5-oxo-5,6,7,8-tetrahydro-9-oxa-1,3,6-triazabenzocyclohepten-4-yl]phenyl}-3-pyridin-2-ylurea]
IC50 [1]: 13 nM
PI3Ka IC50 (PI3Kα (p110α/p85α)): 372 nM
IC50 (U87MG tumour cells): 137 nM
IC50 (Akt-pS473 in U87MG cells): 11 nM

CCN1CC(C)(C)Oc2nc(N3C4CCC3COC4)nc(-c3ccc(NC(=O)Nc4cc(C)nc(C)n4)cc3)c2C1=O [Example 93, 1-(2,6-Dimethylpyrimidin-4-yl)-3-{4-[6-ethyl-8,8-dimethyl-2-(3-oxa-8-azabicyclo[3.2.1]oct-8-yl)-5-oxo-5,6,7,8-tetrahydro-9-oxa-1,3,6-triazabenzocyclohepten-4-yl]phenyl}urea]
IC50 [1]: 72 nM
PI3Ka IC50 (PI3Kα (p110α/p85α)): >10000 nM
IC50 (U87MG tumour cells): 410 nM
IC50 (Akt-pS473 in U87MG cells): 65 nM

CCN1CC(C)(C)Oc2nc(N3C4CCC3COC4)nc(-c3ccc(NC(=O)Nc4ccccn4)cc3)c2C1=O [Example 63, 1-{4-[6-Ethyl-8,8-dimethyl-2-(3-oxa-8-azabicyclo[3.2.1]oct-8-yl)-5-oxo-5,6,7,8-tetrahydro-9-oxa-1,3,6-triazabenzocyclohepten-4-yl]phenyl}-3-pyridin-2-ylurea]
IC50 [1]: 31 nM
PI3Ka IC50 (PI3Kα (p110α/p85α)): >10000 nM
IC50 (U87MG tumour cells): 190 nM
IC50 (Akt-pS473 in U87MG cells): 31 nM

CCN1CC(C)(C)Oc2nc(N3CCOC[C@@H]3C)nc(-c3ccc(NC(=O)NCC(F)(F)F)c(F)c3)c2C1=O [Example 149, 1-{4-[6-Ethyl-8,8-dimethyl-2-((S)-3-methylmorpholin-4-yl)-5-oxo-5,6,7,8-tetrahydro-9-oxa-1,3,6-triazabenzocyclohepten-4-yl]-2-fluorophenyl}-3-(2,2,2-trifluoroethyl)urea]
IC50 [1]: 113 nM
PI3Ka IC50 (PI3Kα (p110α/p85α)): >10000 nM
IC50 (U87MG tumour cells): 854 nM
IC50 (Akt-pS473 in U87MG cells): 154 nM

CCN1CC(C)(C)Oc2nc(N3CCOC[C@@H]3C)nc(-c3ccc(NC(=O)Nc4ccon4)c(F)c3)c2C1=O [Example 159, 1-{4-[6-Ethyl-8,8-dimethyl-2-((S)-3-methylmorpholin-4-yl)-5-oxo-5,6,7,8-tetrahydro-9-oxa-1,3,6-triazabenzocyclohepten-4-yl]-2-fluorophenyl}-3-isoxazol-3-ylurea]
IC50 [1]: 18 nM
PI3Ka IC50 (PI3Kα (p110α/p85α)): 561 nM
IC50 (U87MG tumour cells): 98 nM
IC50 (Akt-pS473 in U87MG cells): 21 nM
